The target in one assay is BACE (Homo sapiens, UniProt P56817). The experiment in a line: In vitro enzymatic BACE FRET (fluorescence resonance energy transfer) assay. Format: biochemical. Particulars: BACE enzyme 0.2 nM, FRET substrate 50 nM, acetate buffer pH 4.2. How it is done: In Vitro Enzymatic BACE FRET (Fluorescence Resonance Energy Transfer) Assay
Assay buffer is 0.05 M acetate, pH 4.2, 10% DMSO final, 100 uM genapol (which is a nonionic detergent, below it's Critical Micelle Concentration). Enzyme (0.2 nM) is pre-incubated for one hour with inhibitors added in 1 uL of DMSO. Then the assay is started by the addition of FRET substrate (50 nM) and incubated for one hour. The FRET assay is terminated with by addition of Tris buffer, which raises the pH to neutrality, and the fluorescence is determined. The FRET substrate is a peptide with commercially available fluorophore and quencher, on opposite sides of the BACE cleavage site. Proteolytic cleavage of the FRET substrate releases quenching of fluorescence (excitation 488 nm and emission […]).

The test system of assay [1] is Aβ40 in conditioned medium of cells stably expressing Amyloid Precursor Protein (APP). The experiment in a line: BACE cell-based assay: Aβ40 in conditioned medium by sandwich ELISA. In outline: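 Aβ40 in conditioned medium was read by time-resolved fluorescence sandwich ELISA (capture pAb40, detection biotinylated 6E10, 4° C incubations). Compounds were applied for 24 h to cells stably expressing APP, at 10 doses from 100 or 10 μM top, 0.1% DMSO. IC50 derived from percent of control.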
A general note: An ELISA detects its analyte on a solid surface through an enzyme-linked reagent.

Read-outs that look alike come from different tables or passages of the source.

Sequence of BACE (P56817 46-501, species assumed): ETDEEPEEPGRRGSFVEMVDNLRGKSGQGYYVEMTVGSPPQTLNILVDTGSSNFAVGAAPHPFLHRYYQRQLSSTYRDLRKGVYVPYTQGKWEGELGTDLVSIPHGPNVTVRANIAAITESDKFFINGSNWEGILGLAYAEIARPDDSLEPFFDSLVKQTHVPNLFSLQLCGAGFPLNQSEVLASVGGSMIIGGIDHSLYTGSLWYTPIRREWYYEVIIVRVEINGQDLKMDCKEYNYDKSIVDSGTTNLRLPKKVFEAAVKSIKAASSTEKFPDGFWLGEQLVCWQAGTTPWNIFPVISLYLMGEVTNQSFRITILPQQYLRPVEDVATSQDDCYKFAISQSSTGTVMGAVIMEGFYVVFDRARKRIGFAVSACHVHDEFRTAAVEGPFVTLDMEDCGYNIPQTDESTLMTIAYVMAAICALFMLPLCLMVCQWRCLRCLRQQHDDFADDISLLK

`CC(=O)N[C@@H](Cc1ccccc1)[C@H](O)CN[C@H]1CC2(CCC2)Oc2ncc(CC(F)(F)F)cc21` [Example 512, N-((1S,2R)-2-hydroxy-1-(phenylmethyl)-3-(((4′S)-6′-(2,2,2-trifluoroethyl)-3′,4′-dihydrospiro[cyclobutane-1,2′-pyrano[2,3-b]pyridin]-4′-yl)amino)propyl)acetamide]: the IC50 against BACE is no more than 5000 nM; in assay [1] (cells stably expressing APP, 24 h incubation with compound, Aβ40 in supernatant by sandwich ELISA, read-out: IC50 values in the cell-based assay (inhibition or reduction of Aβ40)), no more than 5000 nM.

For `CC(=O)N[C@@H](Cc1cccc(F)c1)[C@H](O)CN[C@H]1CC2(CCC2)Oc2c1cc(CC(C)(C)C)nc2OC(C)C` [Example 610, N-((1S,2R)-3-(((4′S)-6′-(2,2-dimethylpropyl)-8′-((1-methylethyl)oxy)-3′,4′-dihydrospiro[cyclobutane-1,2′-pyrano[2,3-c]pyridin]-4′-yl)amino)-1-((3-fluorophenyl)methyl)-2-hydroxypropyl)acetamide], the IC50 was no more than 5000 nM against BACE and 17.2 nM in assay [1] (cell based assay data of Table 4, unit inferred, read-out: Cell Assay).

With `C=CC[C@H](NC(C)=O)[C@H](O)CN[C@H]1CC2(CCC2)Oc2ncc(CC(C)(C)C)cc21` [Example 736, N-((1S)-1-((1R)-2-(((4′S)-6′-(2,2-dimethylpropyl)-3′,4′-dihydrospiro[cyclobutane-1,2′-pyrano[2,3-b]pyridin]-4′-yl)amino)-1-hydroxyethyl)-3-buten-1-yl)acetamide], the IC50 against BACE is no more than 5000 nM; in assay [1] (cell based assay data, Table 4, unit inferred, read-out: Cell Assay), 34 nM.

For the origin of these results see patent US7973047B2, “Beta-Secretase modulators and methods of use” (Amgen Inc., priority 2010, dated 2011).
